Reference: patent publication US4008223A, “6-Aza-3H-1,4-benzodiazepines” (Deutsche Gold- und Silber-Scheideanstalt vormals Roessler, priority 1971, dated 1977)

Legend:
[1] = literature; cited from earlier work
mice [2] = assay: rotating rod test (ataxic effect); format: in vivo; details: quotient of ED50 ataxia / ED50 Cardiazol shock; should be as large as possible
Text: (§1) Furthermore, there is given in this table the ataxic activity. The ratio of ataxic activity to the anxiolytic activity is of the greatest significance in using a material as an anxiolytic agent. This quotient should be as large as possible since an ataxic activity is undesirable. Ataxic activity means that the coordination of the muscular movements is disturbed -- ataxic disturbance of the muscular coordination. This means at the dosage at which a marked anxiolytic activity is present there should not be found a noteworthy ataxice. The toxicity, in case the data exists above the ataxic activity, is no longer important since the amount which is toxic is always considerably higher than the amount at which 50% (ED50) of the animals have an ataxic effect. The ataxic effect was measured on mice on the pattern of the rotating rod.
(§2) In the rotating rod test the animals (mice) were firest placed on a rotating rod 15 minutes after the application of the test material and then were placed on the rotating rod every 15 minutes and the animals which fell down within 2 minutes measured positive. From the number of animals which fell down expressed in per cent there were drawn time-effect curves and the areas defined by it entered as percent effect in a probability network, the dosage-effect-line prepared and the ED50 read off. The ED50 mg/kg body weight of the mouse again specifies the dosage at which 50% of all the animals show a typical ataxic effect.

[3] = rotating rod test (ataxic effect); format: in vivo, mice; details: mouse, rotating rod test; mice; oral; 50% of animals show a typical ataxic effect; read-out: ED50, ataxic effect (rotating rod)
Text: as §1, §2

mice [4] = assay: Cardiazol shock (anticonvulsive / anxiolytic effect); format: in vivo; details: Mus musculus, 1 h, oral, one hour before 150 mg/kg s.c. Cardiazol, 50% of animals with marked anticonvulsive effect
Text: The compounds of the present invention have a pronounced anxiolytic activity, i.e., they relieve or reduce anxiety. Such activity naturally cannot be measured directly in animals. […] A method for testing whether a compound has anticonvulsive properties and also therewith is anxiolytically active is the Cardiazol-Shock Method.
In order to compare the therapeutic value of the compounds of the present invention with the most closely related compounds in Littell U.S. Pat. No. 3,314,941 and Reeder U.S. Pat. No. 3,371,085 tests were conducted comparing the properties of the compounds of the present application and the Littell and Reeder patents in regard to anxiolytic effect (tested by Cardiazol-Shock).
The Cardiazol shock procedure was carried out according to the method of F.M. Berger et al in J. Pharmacol. Exper. Therap. Vol. 116, pages 337-342 (1956). With mice the subcutaneous injection of 150 mg/kg of Cardiazol first results in short lasting spasms, then long lasting and strong spasms and finally results in the death of all of the animals within 10 to 15 minutes. By the oral administration of the anticonvulsive acting test materials at various dosages one hour prior to the administration of the Cardiazol, the 100% lethal effect of the Cardiazol is reduced depending on the dosage. From the percentage of surviving animals in the individual test groups there was plotted graphically the dosage-effect line and from this the ED50 value was ascertained.

[5] = on introduction of p-chlorine and alpha-methyl; literature; cited from earlier work
[6] = First Int. Pharmacological Meeting, Vol. 7, pages 311 et seq.; cited from earlier work

Structure (SMILES) | antihistamine activity [1] | ratio of ataxic activity to the anxiolytic activity (mice [2]) | TD50 [3] | ED50 (mice [4]) | anticholinergic activity [5] | stimulating activity [6]
CN(C)CCCN1c2ccccc2Sc2ccc(Cl)cc21 [Chlorpromazine] | practically no antihistamine activity |  |  |  |  | 
O=C1Nc2ccc(Cl)nc2C(c2ccccc2Cl)=NC1O (stereo not shown) [Example 13, 3-Hydroxy-5-o-chlorophenyl-6-aza-7-chloro-1,2-dihydro-3H-1,4-benzodiazepinone-(2)] |  | 15.0 | 36 mg/kg | 2.4 mg/kg |  | 
CC(=O)OC1N=C(c2ccccc2Cl)c2nc(Cl)ccc2N(C(C)=O)C1=O (stereo not shown) [Example 15, 1-Acetyl-3-acetoxy-5-(o-chlorophenyl)-6-aza-7-chloro-1,2-dihydro-3H-1,4-benzodiazepinone-(2)] |  | 6.7 | 100 mg/kg | 15 mg/kg |  | 
CN1C(=O)CN=C(c2ccccc2Cl)c2nc(Cl)ccc21 [Example 21, 1-Methyl-5-(o-chlorophenyl)-6-aza-7-chloro-1,2-dihydro-3H-1,4-benzodiazepinone-(2)] |  | 10.2 | 10 mg/kg | 0.98 mg/kg |  | 
CN1C(=O)CN=C(c2ccccc2)c2nc(Cl)ccc21 [Example 17, 1-Methyl-5-phenyl-6-aza-7-chloro-1,2-dihydro-3H-1,4-benzodiazepinone-(2)] |  | 6.2 | 26 mg/kg | 4.2 mg/kg |  | 
C=CCN1C(=O)CN=C(c2ccccc2)c2nc(Cl)ccc21 [Example 18, 1-Allyl-5-phenyl-6-aza-7-chloro-1,2-dihydro-3H-1,4-benzodiazepinone-(2)] |  | 8.2 | 90 mg/kg | 11 mg/kg |  | 
O=C1CN=C(c2ccccc2Cl)c2nc(Cl)ccc2N1 [Example 6, 5-(o-Chlorophenyl)-6-aza-7-chloro-1,2-dihydro-3H-1,4-benzodiazepinone-(2)] |  | 16.5 | 45 mg/kg | 2.72 mg/kg |  | 
CN1C(=S)CN=C(c2ccccc2Cl)c2nc(Cl)ccc21 [Example 24, 1-Methyl-5-(o-chlorophenyl)-6-aza-7-chloro-1,2-dihydro-3H-1,4-benzodiazepinthione-(2)] |  | 12.5 | 39 mg/kg | 3.3 mg/kg |  | 
CN(C)CCOC(C)(c1ccccc1)c1ccc(Cl)cc1 (stereo not shown) [chlorphenoxamine] | reduced |  |  |  | strengthening | 
CC(NN)c1ccccc1 (stereo not drawn) [alpha phenyl-ethyl hydrazine] |  |  |  |  |  | strong stimulating activity
CN1C(=O)CN=C(c2ccccc2F)c2nc(Cl)ccc21 [Example 9, 1-Methyl-5-(o-fluorophenyl)-6-aza-7-chloro-1,2-dihydro-3H-1,4-benzodiazepinone-(2)] |  | 6.1 | 9.7 mg/kg | 1.58 mg/kg |  | 
O=C1CN=C(c2ccccc2)c2nc(Cl)ccc2N1 [Example 1, 5-Phenyl-6-aza-7-chloro-1,2-dihydro-3H-1,4-benzodiazepinone-(2)] |  | 11.4 | 72 mg/kg | 6.3 mg/kg |  | 
O=C1CN=C(c2ccccc2)c2nc(Cl)ccc2N1CC1CC1 [Example 19] |  | 7.7 | 75 mg/kg | 9.75 mg/kg |  | 
CC1N=C(c2ccccc2)c2nc(Cl)ccc2NC1=O (racemic) [Example 4, 3-Methyl-5-phenyl-6-aza-7-chloro-1,2-dihydro-3H-1,4-benzodiazepinone-(2)] |  | 4.3 | 78 mg/kg | 18 mg/kg |  | 
O=C1CN=C(c2ccccc2F)c2nc(Cl)ccc2N1 [Example 10, 5-(-Fluorophenyl)-6-aza-7-chloro-1,2-dihydro-3H-1,4-benzodiazepinone-(2)] |  | 10.4 | 17 mg/kg | 1.63 mg/kg |  | 
O=C(O)CCC(=O)OC1N=C(c2ccccc2Cl)c2nc(Cl)ccc2NC1=O (stereo not shown) [Example 12] |  | 13.5 | 100 mg/kg | 7.4 mg/kg |  | 
